Structures can show the parent of a compound that is named as a salt. Where two headings read alike, the source gives them in different places.
What was measured:
[1] = cited from earlier work
[2] = cited from earlier work; remark: listed apart in the source
[3] = Description: (§1) k′app=k′HA([H^+]+^surfaceKa)/([H^+]+^bulkKa) Eq. 7
(§2) where k′app is the capacity factor of the test compound measured at different mobile phase pH conditions, and k′HA is the capacity factor of the non-ionized species. Nonlinear fitting of the three experimentally measured parameters [H+], k′app, and k′HA to eq. 7 can be used to obtain numerical estimates for both ^surface Ka and ^bulkKa of the compound.
(§3) k′app=k′A^−([H^+]/^surfaceKa+1)/([H^+]/^bulkKa+1) Eq. 8
(§4) The reason for developing eq. 7 is that eq. […] Both parameters (k′HA and k′A^−) can be treated as unknowns in the equations (like ^bulkKa and ^surfaceKa), and the experimental data can be used to calculate (by non-linear curve fitting) three parameters (k′HA (or k′A^−) and ^bulkKa and ^surfaceKa) instead of two (^bulkKa and ^surfaceKa). This reduces the number of experimental data to be collected, and still allows the determination of the desired parameters (^bulkKa and ^surfaceKa).
(§5) The conventional thinking regarding equations 7 and 8 is that k′HA and k′A^− (the capacity factors of the […] species) are constants that have to be determined experimentally in order to calculate ^bulkpKa and ^surfacepKa. […] This is problematic because it may require use of pH's greater than 8-9, which in the case of some test surfaces causes deterioration. […] If sufficient data are collected (no matter what the pH range is), non-linear curve fitting techniques can be used to fit three parameters (^bulkpKa, ^surfacepKa and k′HA (or k′A^−, depending on whether you use Eq. 7 or Eq. 8)) instead of two (^bulkpKa and ^surfacepKa).
(§6) The test compounds were injected as two distinct mixtures (acidic and basic compounds) to avoid acid/base interactions during the chromatographic runs. […] The retention time (tr) was determined for each compound and the corresponding capacity factor k′app was calculated. Between each run, column degradation was evaluated by running the standard compounds at pH=7.4.
(§7) The retention time of each compound was determined using the Esquire Data Analysis software. The capacity factors k′app were calculated using the equation: k′app=(tr−t0)/t0 where the tr is the retention time, and t0 is the dead time. The final ^surfaceKa and ^bulkKa were calculated by nonlinear least square curve fitting of the following equations:
(§8) k′app=k′HA([H^+]+^surfaceKa)/([H^+]+^bulkKa) (Eq. 7 as shown above).
(§9) k′app=k′A^−([H^+]/^surfaceKa+1)/([H^+]/+^bulkKa+1) (Eq. 8 as shown above).
(§10) [H^+] was calculated from the mobile phase pH values used for the experiment. The fitting parameters were k′A^−, ^surfaceKa, and ^bulkKa for the acidic compounds and kHA, ^surfaceKa, and ^bulkKa for the basic compounds.
(§11) The nonlinear fitting function is from the commercial software S-PLUS (MathSoft). Briefly, the function tries to estimate the parameters to minimize the sum of the squared differences between the response and the prediction. We collected data at 15 different pH values. […] Like all silica based chromatography material, Immobilized Artificial Membranes (IAM's) are unstable in the presence of chemically basic mobile phase, and column lifetimes decrease under these conditions. Thus it is not possible to continuously perfuse IAM columns with basic mobile phases for extended periods of time. […] In summary, 12 points were used to curve fit the data.
(§12) For each compound, the retention time (tr) was determined and the corresponding capacity factor (k′app) was calculated under various mobile phase pH conditions.

[4] = remark: listed apart in the source
Description: as §1, §2, §3, §4, §5
The data was collected on 4.6×30 mm^esterIAM.PC^C10/C3 columns. Four ^esterIAM.PC^C10/C3 columns were used to collect all the experimental data.
as §6, §7, §8, §9, §10, §11, §12

[5] = literature, cited from earlier work; for bulkpka2 (Ref.): second ionizable group
[6] = Capacity factor (k′app) by LC/MS on an immobilized artificial membrane column at varied mobile phase pH; type: physicochemical
[7] = 0.01 M PBS mobile phase, 12 pH points 4.05 to 8.06, monovalent equations
[8] = esterIAM.PC C10/C3 column, 0.01 M PBS mobile phase, 12 pH points 4.05 to 8.06, monovalent equations

CCCCCCCCCCCCC/C=C/[C@@H](O)[C@H](CO)N(C)C [DMS, N,N-Dimethyl-D-sphingosine]
fraction protonated ([1]; at physiological pH): 90% | membrane bound pKa value [1]: 8.8

CCCCNc1ccc(C(=O)OCCN(C)C)cc1 [TTC, tetracaine hydrochloride]
location in the membrane ([2]; pH 5.5, positively charged form): resides near the phospholipid head group region | location in the membrane ([2]; pH 9.0, uncharged form): penetrates more deeply into the hydrocarbon region of the membrane

CC[C@H]1[C@@H]2C[C@H]3[C@@H]4N(C)c5ccccc5[C@]45C[C@@H]([C@H]2[C@H]5O)N3[C@@H]1O [ajmaline]
bulkpKa (Exp.) [3, 7]: 7.43 | surfacepKa (Exp.) [4, 8]: 6.75 | bulkpKa1 (Ref.) ([5]; 20° C., DMFA/H2O-80%): 8.1

COc1cc2c(cc1OC)[C@@]13CCN4CC5=CCO[C@H]6CC(=O)N2[C@H]1[C@H]6[C@H]5C[C@H]43 [brucine]
bulkpKa (Exp.) [3, 7]: 7.9 | surfacepKa (Exp.) [4, 8]: 6.55 | bulkpKa1 (Ref.) ([5]; conditions not given): 6.04 | bulkpka2 (Ref.) [5]: 11.70

CN(C)CCOC(C)(c1ccccc1)c1ccccn1 (centres unmarked) [doxylamine]
bulkpKa (Exp.) [3, 7]: 7.93 | surfacepKa (Exp.) [4, 8]: 6.72 | bulkpKa1 (Ref.) ([5]; conditions not given): 7.64 | bulkpka2 (Ref.) [5]: 9.20

CCC[C@@H]1C[C@@H](C(=O)N[C@@H]([C@H]2O[C@H](SC)[C@H](O)[C@@H](O)[C@H]2O)[C@@H](C)O)N(C)C1 [lincomycin]
bulkpKa (Exp.) [3]: 7.54 | surfacepKa (Exp.) [4]: 6.28 | bulkpKa1 (Ref.) ([5]; conditions not given): 7.5

COc1ccc(OC)c(C(O)CNC(=O)CN)c1 (centres unmarked) [midodrine]
bulkpKa (Exp.) [3]: 6.65 | surfacepKa (Exp.) [4]: 6.18 | bulkpKa1 (Ref.) ([5]; 0.3% aq. soln): 7.80

Cc1cc(-c2ccccc2)nnc1NCCN1CCOCC1 [minaprine]
bulkpKa (Exp.) [3]: 6.75 | surfacepKa (Exp.) [4]: 5.75 | bulkpKa1 (Ref.) ([5]; conditions not given): 7.05 | bulkpka2 (Ref.) [5]: 4

CCn1cc(C(=O)O)c(=O)c2ccc(C)nc21 [nalldixic acid]
bulkpKa (Exp.) [3, 7]: 6.03 | surfacepKa (Exp.) [4, 8]: 7.54 | bulkpKa1 (Ref.) ([5]; conditions not given): 6.02

C=C1CC[C@@]2(O)[C@H]3Cc4ccc(O)c5c4[C@@]2(CCN3CC2CC2)[C@H]1O5 [nalmefene]
bulkpKa (Exp.) [3, 7]: 7.81 | surfacepKa (Exp.) [4, 8]: 6.88 | bulkpKa1 (Ref.) ([5]; conditions not given): 7.63

C=CCN1CC[C@]23c4c5ccc(O)c4O[C@H]2[C@@H](O)C=C[C@H]3[C@H]1C5 [nalorphine]
bulkpKa (Exp.) [3, 7]: 7.63 | surfacepKa (Exp.) [4, 8]: 6.04 | bulkpKa1 (Ref.) ([5]; conditions not given): 7.8

C=CCN1CC[C@]23c4c5ccc(O)c4O[C@H]2C(=O)CC[C@@]3(O)[C@H]1C5 [naloxone]
bulkpKa (Exp.) [3, 7]: 7.84 | surfacepKa (Exp.) [4, 8]: 6.24

CC1COc2c(N3CCN(C)CC3)c(F)cc3c(=O)c(C(=O)O)cn1c23 (centres unmarked) [ofloxacin]
bulkpKa (Exp.) [3, 7]: 6.84 | surfacepKa (Exp.) [4, 8]: 7.32 | bulkpKa1 (Ref.) ([5]; conditions not given): 5.74 | bulkpka2 (Ref.) [5]: 7.9

COc1cc(NS(=O)(=O)c2ccc(N)cc2)nc(OC)n1 [sulfadimethoxine]
Capacity Factor (k′app) on IAM.PC Surface ([6]; mobile phase pH 4.05): 152.07 | Capacity Factor (k′app) on IAM.PC Surface ([6]; mobile phase pH 4.53 (not used for curve fit)): 131.83 | Capacity Factor (k′app) on IAM.PC Surface ([6]; mobile phase pH 5.01): 131.23 | Capacity Factor (k′app) on IAM.PC Surface ([6]; mobile phase pH 5.51): 116.77 | Capacity Factor (k′app) on IAM.PC Surface ([6]; mobile phase pH 6.10): 67.79 | Capacity Factor (k′app) on IAM.PC Surface ([6]; mobile phase pH 6.38): 46.54 | Capacity Factor (k′app) on IAM.PC Surface ([6]; mobile phase pH 6.71): 28.10 | Capacity Factor (k′app) on IAM.PC Surface ([6]; mobile phase pH 7.00): 19.48 | Capacity Factor (k′app) on IAM.PC Surface ([6]; mobile phase pH 7.17): 13.49 | Capacity Factor (k′app) on IAM.PC Surface ([6]; mobile phase pH 7.45): 8.24 | Capacity Factor (k′app) on IAM.PC Surface ([6]; mobile phase pH 7.69): 6.40 | Capacity Factor (k′app) on IAM.PC Surface ([6]; mobile phase pH 7.91): 4.85 | Capacity Factor (k′app) on IAM.PC Surface ([6]; mobile phase pH 8.06): 3.52 | Capacity Factor (k′app) on IAM.PC Surface ([6]; mobile phase pH 8.81 (column degradation, not used for curve fit)): 2.84 | Capacity Factor (k′app) on IAM.PC Surface ([6]; mobile phase pH 10.42 (column degradation, not used for curve fit)): 0.71 | bulkpKa (Exp.) [3, 7]: 6.02 | surfacepKa (Exp.) [4, 8]: 7.64

COc1cc2nc(N3CCN(C(=O)C4CCCO4)CC3)nc(N)c2cc1OC (centres unmarked) [terazosin]
bulkpKa (Exp.) [3]: 6.65 | surfacepKa (Exp.) [4]: 6.17 | bulkpKa1 (Ref.) ([5]; 0.1 N NaOH): 7.1

CC(=O)CC(c1ccccc1)c1c(O)c2ccccc2oc1=O (centres unmarked) [warfarin]
bulkpKa (Exp.) [3, 7]: 5.43 | surfacepKa (Exp.) [4, 8]: 7

Source: patent US6562627B1, “High throughput method for measurement of physicochemical values” (BDC Pharma LLC, priority 1998, dated 2003)
